Experimental data from ChEMBL document CHEMBL1201862, “PubChem BioAssay data set” (2004).
The source made the active and inactive calls.

Assays:
[1] = Trypanosoma cruzi growth suppression in host cells – NIH3T3 host cells, beta-gal luminescence, confirmation (AID 2044); assay type: functional, cell-based;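 also: intracellular parasites grown in NIH/3T3 mouse fibroblasts as host cells; luminescent beta-galactosidase reporter signal from transgenic T. cruzi replicating inside host cells; inhibitors lower the luminescence signal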
[2] = NIH3T3 cell viability loss – ATP luminescence, mouse fibroblasts, counter-screen, dose response (AID 2010); assay type: functional, cell-based; conditions: NIH3T3;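 also: cells exposed to compound for about 90 hours before reading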
[3] = target: Voltage-dependent T-type calcium channel subunit alpha-1H (Homo sapiens, UniProt O95180); assay type: functional;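 also: channel activity triggered by adding a high calcium stimulation buffer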
Voltage-dependent T-type calcium channel subunit alpha-1H, sequence (O95180 whole entry, the tested form may be a part): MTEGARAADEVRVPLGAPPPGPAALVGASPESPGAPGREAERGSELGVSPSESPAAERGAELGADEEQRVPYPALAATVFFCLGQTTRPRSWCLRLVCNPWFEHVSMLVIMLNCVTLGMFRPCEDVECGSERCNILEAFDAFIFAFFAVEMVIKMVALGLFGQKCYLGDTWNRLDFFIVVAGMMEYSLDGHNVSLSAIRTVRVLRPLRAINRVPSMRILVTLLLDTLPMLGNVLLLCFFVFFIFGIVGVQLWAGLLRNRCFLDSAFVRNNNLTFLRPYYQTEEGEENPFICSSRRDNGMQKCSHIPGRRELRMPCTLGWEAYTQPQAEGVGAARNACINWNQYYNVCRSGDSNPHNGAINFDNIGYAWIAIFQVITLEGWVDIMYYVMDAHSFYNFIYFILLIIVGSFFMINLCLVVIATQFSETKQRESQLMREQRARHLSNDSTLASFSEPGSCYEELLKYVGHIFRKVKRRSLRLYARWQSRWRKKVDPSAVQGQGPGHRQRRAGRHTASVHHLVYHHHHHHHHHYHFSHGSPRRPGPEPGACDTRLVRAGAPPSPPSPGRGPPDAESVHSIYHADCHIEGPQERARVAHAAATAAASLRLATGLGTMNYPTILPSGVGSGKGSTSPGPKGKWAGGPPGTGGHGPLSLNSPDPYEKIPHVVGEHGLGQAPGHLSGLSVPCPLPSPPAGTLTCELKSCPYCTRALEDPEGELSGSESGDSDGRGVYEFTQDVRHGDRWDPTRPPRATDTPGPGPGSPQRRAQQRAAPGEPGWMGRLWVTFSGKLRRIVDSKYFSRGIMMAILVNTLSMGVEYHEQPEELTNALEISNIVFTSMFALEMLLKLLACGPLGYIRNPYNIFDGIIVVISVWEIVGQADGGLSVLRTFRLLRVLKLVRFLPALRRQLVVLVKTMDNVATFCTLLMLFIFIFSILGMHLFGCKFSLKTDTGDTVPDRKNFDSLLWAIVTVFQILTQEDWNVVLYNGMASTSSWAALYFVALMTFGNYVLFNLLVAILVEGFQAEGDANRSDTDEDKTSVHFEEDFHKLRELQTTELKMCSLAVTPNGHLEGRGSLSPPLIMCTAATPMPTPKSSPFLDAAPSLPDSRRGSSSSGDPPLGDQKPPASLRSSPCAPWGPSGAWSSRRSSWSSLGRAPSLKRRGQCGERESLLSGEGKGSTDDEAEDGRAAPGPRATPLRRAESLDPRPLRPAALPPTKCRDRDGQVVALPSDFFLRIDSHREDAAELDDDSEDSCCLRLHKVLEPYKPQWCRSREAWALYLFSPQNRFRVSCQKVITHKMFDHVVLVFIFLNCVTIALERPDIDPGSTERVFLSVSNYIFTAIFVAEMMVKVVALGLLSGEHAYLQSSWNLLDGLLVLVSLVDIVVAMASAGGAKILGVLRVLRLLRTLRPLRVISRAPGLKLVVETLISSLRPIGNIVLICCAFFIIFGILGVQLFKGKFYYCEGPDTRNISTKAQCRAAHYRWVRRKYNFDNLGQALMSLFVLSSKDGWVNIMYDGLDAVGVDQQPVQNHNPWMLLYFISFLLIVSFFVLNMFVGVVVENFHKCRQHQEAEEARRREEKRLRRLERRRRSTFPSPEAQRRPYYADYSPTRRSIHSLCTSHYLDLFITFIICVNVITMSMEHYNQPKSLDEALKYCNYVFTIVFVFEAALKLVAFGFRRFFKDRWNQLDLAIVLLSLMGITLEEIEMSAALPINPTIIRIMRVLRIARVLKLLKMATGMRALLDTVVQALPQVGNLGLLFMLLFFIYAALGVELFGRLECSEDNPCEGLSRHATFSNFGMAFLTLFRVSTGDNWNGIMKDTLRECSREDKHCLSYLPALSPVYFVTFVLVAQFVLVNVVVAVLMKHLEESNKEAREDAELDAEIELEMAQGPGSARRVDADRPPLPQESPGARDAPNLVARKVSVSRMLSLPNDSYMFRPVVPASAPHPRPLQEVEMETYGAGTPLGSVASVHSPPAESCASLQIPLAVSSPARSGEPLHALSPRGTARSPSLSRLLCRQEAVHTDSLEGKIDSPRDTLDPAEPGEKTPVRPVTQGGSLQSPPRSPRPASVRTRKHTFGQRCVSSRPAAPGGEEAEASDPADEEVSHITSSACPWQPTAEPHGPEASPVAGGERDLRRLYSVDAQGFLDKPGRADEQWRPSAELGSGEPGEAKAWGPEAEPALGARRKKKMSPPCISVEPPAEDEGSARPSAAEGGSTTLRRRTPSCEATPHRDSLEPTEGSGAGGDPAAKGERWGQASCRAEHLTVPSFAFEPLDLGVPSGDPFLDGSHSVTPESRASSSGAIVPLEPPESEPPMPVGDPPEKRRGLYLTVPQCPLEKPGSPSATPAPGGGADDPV

[4] = target: T1, Carboxy-terminal domain RNA polymerase II polypeptide A small phosphatase 1 (Homo sapiens, UniProt Q9GZU7); experiment: CTDSP1 inhibitors, concentration-response, biochemical, absorbance readout, ultra-high-throughput screen actives (AID 540297); assay type: functional
T1 sequence (Q9GZU7 whole entry): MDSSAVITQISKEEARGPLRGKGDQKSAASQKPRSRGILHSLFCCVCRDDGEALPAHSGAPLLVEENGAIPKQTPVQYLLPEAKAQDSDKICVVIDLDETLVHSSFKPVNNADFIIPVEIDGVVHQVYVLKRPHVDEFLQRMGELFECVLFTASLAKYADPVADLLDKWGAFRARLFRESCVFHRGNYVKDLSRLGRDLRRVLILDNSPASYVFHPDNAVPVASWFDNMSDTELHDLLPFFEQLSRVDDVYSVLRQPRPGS

[5] = Vero E6 cell cytotoxicity, dose response, cytotoxicity control for non-replicating M. tuberculosis project, secondary assay (AID 492998); assay type: functional, VeroE6; conditions: Vero C1008
[6] = HepG2 cell cytotoxicity, dose response, cytotoxicity control for non-replicating M. tuberculosis project (AID 489018); assay type: functional; conditions: Mycobacterium tuberculosis
[7] = microbe, parasite or virus in culture; assay type: functional; conditions: Mycobacterium tuberculosis
[8] = viability of HCT116 lacking mutant beta-catenin – cell-based, human colon tumor, dose response (AID 1045); assay type: functional;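 also: HCT116 colon tumor cells with beta catenin knocked out; cells exposed to compound for 60 hours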
[9] = cells; assay type: functional
[10] = viability of PTEN-deleted HCT116 cells – cell-based, HCT116 PTEN knockout, dose response (AID 1047); assay type: functional;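 also: HCT116 colon tumor cells with PTEN knocked out; cells exposed to compound for 60 hours before readout; potency for loss of cell viability measured by luminescence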
[11] = tested on: INS1; experiment: INS-1E survival protection against cytokine death – cell-based, luminescence, retest, dose response (AID 449756); assay type: functional; conditions: Rattus norvegicus;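 also: cell death triggered by IL-1 beta plus TNF-alpha plus IFN-gamma mixture; protective hits raise ATP signal compared with cytokine alone wells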
[12] = THP-1 cell cytotoxicity, dose response, cytotoxicity control for non-replicating M. tuberculosis project (AID 489025); assay type: functional
[13] = target: Glucose-6-phosphate 1-dehydrogenase (Homo sapiens, UniProt P11413); experiment: inhibition of Homo sapiens G6PD, dose series – biochemical, fluorescence, selectivity assay for P. falciparum G6PD inhibitor project, dose response (AID 504792); assay type: functional
Glucose-6-phosphate 1-dehydrogenase, sequence (P11413 whole entry): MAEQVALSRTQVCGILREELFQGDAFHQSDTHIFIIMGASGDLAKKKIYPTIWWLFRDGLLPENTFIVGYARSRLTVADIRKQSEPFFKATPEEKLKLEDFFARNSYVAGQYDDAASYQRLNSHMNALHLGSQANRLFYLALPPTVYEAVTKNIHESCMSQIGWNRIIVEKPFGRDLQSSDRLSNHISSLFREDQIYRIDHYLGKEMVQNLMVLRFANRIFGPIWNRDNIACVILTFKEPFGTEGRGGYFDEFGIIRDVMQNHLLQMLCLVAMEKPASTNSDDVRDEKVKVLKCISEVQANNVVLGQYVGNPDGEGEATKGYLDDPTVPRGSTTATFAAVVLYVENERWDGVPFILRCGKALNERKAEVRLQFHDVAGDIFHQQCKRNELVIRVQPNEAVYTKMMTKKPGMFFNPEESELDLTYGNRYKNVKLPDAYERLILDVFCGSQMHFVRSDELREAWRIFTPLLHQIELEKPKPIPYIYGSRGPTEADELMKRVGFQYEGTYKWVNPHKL

[14] = target: Nonstructural protein 1 (Influenza A virus, UniProt Q194T2); assay type: functional, Influenza A virus (A/California/07/2009(H1N1))
Nonstructural protein 1, sequence (Q194T2 whole entry): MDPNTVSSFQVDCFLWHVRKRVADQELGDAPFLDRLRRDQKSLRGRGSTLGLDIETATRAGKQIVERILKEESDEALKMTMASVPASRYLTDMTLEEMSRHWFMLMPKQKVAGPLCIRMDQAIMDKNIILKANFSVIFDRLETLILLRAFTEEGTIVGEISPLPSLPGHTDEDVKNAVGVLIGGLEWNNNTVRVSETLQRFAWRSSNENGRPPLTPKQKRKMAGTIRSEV

[15] = tested on: Vero; experiment: cells; assay type: functional; conditions: Chlorocebus sabaeus
[16] = cells; assay type: functional, cell-based
[17] = NIH-3T3 fibroblast cytotoxicity, dose response, cytotoxicity control, cell-based, fluorescence, Alamar Blue, secondary assay (AID 2327); assay type: functional;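 also: NIH-3T3 mouse fibroblasts cultured with fluconazole at 8 µg/mL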
[18] = cells; assay type: functional, cell-based; remark: listed apart in the source
[19] = luciferase reporter signal suppression in cells – H4 neuroglioma cells, luminescence, dose response (AID 1990); assay type: functional, cell-based
[20] = Luminescence Cell-Based Dose Response HTS to Identify Inhibitors of 5'UTR Stem-Loop Driven Prion Protein mRNA Translation in H4 Neuroglioblastoma Cells. [Related pubchem assays: 1827 (Project Summary), 1813 (Primary HTS)]; assay type: functional
[21] = fluconazole-exposed Candida albicans growth modulators – fluorescence, retest, confirmation (AID 2467); assay type: functional, cell-based
[22] = alpha-synuclein stem-loop luciferase translation blockers – H4 neuroglioma cells, luminescence, confirmation (AID 1988); assay type: functional, cell-based

Q: Which results are given for Cc1c(C(=O)NCC2COc3ccccc3O2)oc2ccc(S(=O)(=O)N(C)C3CCCCC3)cc12 (stereo unspecified)?
A: EC50 [1]: 1.89 µM (active); EC50 [2]: > 60 µM (not active); EC50 [3]: 5.64 µM (active)

Q: For CN(C)c1ccc(C(c2nnnn2CCOC(=O)Nc2ccc(Cl)cc2)N2CCOCC2)cc1 (stereo unspecified), which EC50 [3] is on record?
A: 9.17 µM (active)

Q: Which EC50 [3] does the source give for Cc1ccc(-c2nnn(CC(=O)N3CCCc4ccccc43)n2)cc1 here?
A: 3.43 µM (active)

Q: For O=C(Cn1cnc2scc(-c3cccc([N+](=O)[O-])c3)c2c1=O)NCc1ccco1, which IC50 [4] is on record?
A: 3.15 µM (active)

Q: For COc1ccccc1OCC(=O)N(Cc1nc(-c2ccccc2)no1)C1CCCCC1, which EC50 [3] is on record?
A: 5.55 µM (active)

Q: What does the source list for CC(=O)Oc1c(C)cc(Cl)cc1C(=O)Nc1ccc([N+](=O)[O-])cc1Cl?
A: CC50 [5]: 3.96 µM (active); CC50 [6]: 7.96 µM (active); CC50 [7]: 1.54 µM (active); EC50 [8]: 2.16 µM (active); IC50 [9]: 9.46 µM (active); EC50 [10]: 1.99 µM (active); AC50 [11]: 1.37 µM (active); CC50 [12]: 5.03 µM (active)

Q: Which IC50 [13] does the source give for Cc1cccc(OCC(=O)NCC(=O)N/N=C/c2ccccc2)c1 here?
A: > 80 µM (inactive)

Q: With CC1=[N+](C)c2c(ccc3cccnc23)C1(C)C as the compound, how does the IC50 [14] read?
A: > 100 µM (active)

Q: Which results are given for CC1CCN(CCc2nc3cc(NC(=O)COc4ccc(Cl)cc4)ccc3n2C)CC1?
A: CC50 [6]: > 20 µM (active); IC50 [9]: 28.1 µM (active); CC50 [12]: 26.1 µM (active)

Q: For O=C(CSc1ccccn1)Nc1ccc2c(c1)C(=O)c1ccccc1C2=O, which IC50 [4] is on record?
A: 3.08 µM (active)

Q: Which CC50 [15] does the source give for CC(C)Cn1c(SCC(=O)c2ccc(Cl)s2)nnc1-c1ccco1 here?
A: > 25 µM (active)

Q: What about the EC50 [3] of the same compound?
A: 10.6 µM (active)

Q: With CC/C(NCc1ccc2c(c1)OCO2)=C1/C(=O)NC(=O)N(C2CCCCC2)C1=O as the compound, how does the EC50 [3] read?
A: 5.15 µM (active)

Q: For CN1CCN(Cc2cc(COCc3ccccc3)c3cccnc3c2O)CC1, which EC50 [1] is on record?
A: 1.37 µM (active)

Q: What about the IC50 [14] of the same compound?
A: 3.98 µM (active)

Q: What about the EC50 [8] of the same compound?
A: 3.23 µM (active)

Q: And the EC50 [10]?
A: 3.11 µM (active)

Q: And the EC50 [16]?
A: 7.14 µM (active)

Q: And the EC50 [2]?
A: 7.62 µM (active)

Q: And the EC50 [17]?
A: > 150 µM (inconclusive)

Q: And the EC50 [18]?
A: > 350 µM (not active)

Q: What about the EC50 [19] of the same compound?
A: 7.01 µM (active)

Q: What about the EC50 [20] of the same compound?
A: 8.1 µM (active)

Q: And the EC50 [21]?
A: 0.8 µM (active)

Q: And the EC50 [22]?
A: 5.83 µM (active)

Q: With O=C(NNC(=O)c1ccc2ccccc2c1)c1ccc(Cl)c(Cl)c1 as the compound, how does the IC50 [4] read?
A: > 80 µM (inactive)

Q: With Cc1cc(NCc2ccccn2)n2nc(C)c(-c3ccccc3)c2n1 as the compound, how does the CC50 [5] read?
A: 13.6 µM (active)

Q: And the CC50 [6]?
A: 3.11 µM (active)

Q: And the IC50 [9]?
A: 3.2 µM (active)

Q: What about the CC50 [12] of the same compound?
A: 6.19 µM (active)

Q: Which results are given for CCC(=O)Nc1nc2ccccc2n1Cc1ccc(C)cc1?
A: CC50 [5]: 16.1 µM (active); CC50 [6]: > 20 µM (active); IC50 [9]: 0.7 µM (active); EC50 [19]: 15.1 µM (active); EC50 [20]: 11.8 µM (active); CC50 [12]: > 40 µM (active); EC50 [22]: 8.69 µM (active)

Q: Which IC50 [14] does the source give for CN(C)c1ccc(N=Nc2ccc3ncccc3c2)cc1 here?
A: 20.4 µM (active)

Q: Which IC50 [13] does the source give for Cc1cccc(C(=O)Nc2sc3c(c2C(=O)O)CCCC3)c1 here?
A: > 80 µM (inactive)

Q: With O=C(Nc1nc2ccccc2s1)C1CC(=O)N(c2ccccc2)C1 (stereo unspecified) as the compound, how does the EC50 [3] read?
A: 8.11 µM (active)
